{"source": "ChEMBL document CHEMBL1130712", "about": "“Phenylpiperazine derivatives with strong affinity for 5HT1A, D2A and D3 receptors” (Bioorg Med Chem Lett, 1998)", "key": {"[1]": {"biological_target": "T1, 5-hydroxytryptamine receptor 1A (Rattus norvegicus, UniProt P19327)", "T1 sequence (P19327 whole entry)": "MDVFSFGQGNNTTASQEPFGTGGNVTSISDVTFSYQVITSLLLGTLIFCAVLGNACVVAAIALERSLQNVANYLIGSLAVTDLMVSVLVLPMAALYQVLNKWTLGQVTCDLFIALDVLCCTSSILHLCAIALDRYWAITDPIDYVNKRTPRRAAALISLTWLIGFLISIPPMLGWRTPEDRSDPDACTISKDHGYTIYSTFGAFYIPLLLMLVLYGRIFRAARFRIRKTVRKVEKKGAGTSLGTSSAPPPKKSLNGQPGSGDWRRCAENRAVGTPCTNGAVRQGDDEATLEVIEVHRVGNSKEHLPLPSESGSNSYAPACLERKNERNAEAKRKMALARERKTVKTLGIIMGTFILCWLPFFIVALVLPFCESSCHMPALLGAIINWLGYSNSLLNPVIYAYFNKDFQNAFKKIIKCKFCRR", "assay": "Compound was measured for the inhibition of [3H]8-OH-DPAT binding to rat hippocampus membrane (5-HT1A receptor)", "type": "tissue-based"}, "[2]": {"biological_target": "D(2) dopamine receptor (Homo sapiens, UniProt P14416)", "sequence (P14416 whole entry)": "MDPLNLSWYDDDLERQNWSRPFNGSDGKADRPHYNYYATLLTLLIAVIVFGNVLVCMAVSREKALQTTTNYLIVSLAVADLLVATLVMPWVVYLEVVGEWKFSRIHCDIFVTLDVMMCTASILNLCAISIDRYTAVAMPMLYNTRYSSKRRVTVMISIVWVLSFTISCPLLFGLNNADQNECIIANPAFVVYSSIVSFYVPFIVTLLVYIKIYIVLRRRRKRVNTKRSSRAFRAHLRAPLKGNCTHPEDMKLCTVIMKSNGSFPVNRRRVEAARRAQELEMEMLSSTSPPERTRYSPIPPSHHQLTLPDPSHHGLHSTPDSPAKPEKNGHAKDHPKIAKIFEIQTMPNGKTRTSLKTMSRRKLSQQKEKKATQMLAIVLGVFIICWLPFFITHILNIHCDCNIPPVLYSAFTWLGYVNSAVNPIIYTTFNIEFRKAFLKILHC", "assay": "Compound was measured for the binding affinity in homogenated mouse fibroblast (LTK) cells transfected with human Dopamine receptor D2A using [3H]raclopride as radioligand."}, "[3]": {"biological_target": "D(3) dopamine receptor (Homo sapiens, UniProt P35462)", "sequence (P35462 whole entry)": "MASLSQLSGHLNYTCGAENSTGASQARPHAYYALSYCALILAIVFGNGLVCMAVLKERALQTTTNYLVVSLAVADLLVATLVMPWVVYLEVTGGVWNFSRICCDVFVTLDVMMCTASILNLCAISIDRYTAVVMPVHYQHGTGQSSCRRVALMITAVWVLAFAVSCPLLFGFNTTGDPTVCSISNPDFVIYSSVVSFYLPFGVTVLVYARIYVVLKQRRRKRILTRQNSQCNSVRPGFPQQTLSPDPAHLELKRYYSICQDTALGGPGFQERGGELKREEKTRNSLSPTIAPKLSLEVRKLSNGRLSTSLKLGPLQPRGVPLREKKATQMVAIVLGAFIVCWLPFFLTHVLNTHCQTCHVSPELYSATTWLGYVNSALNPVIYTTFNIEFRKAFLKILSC", "assay": "Compound was measured for the binding affinity in chinese hamster ovary (CHO) cells transfected with human Dopamine receptor D3 using [3H]raclopride as radioligand", "type": "cell-based"}}, "note": "pKi: −log10 of the molar value.", "data": [{"smiles": "Cc1c(C)c2ccc(OCCCN3CCN(c4ccccc4)CC3)cc2oc1=O", "values": [{"measurement": "pKi", "setting": "[1]", "result": 8.27}, {"measurement": "pKi", "setting": "[2]", "result": 8.23}, {"measurement": "pKi", "setting": "[3]", "result": 7.35}]}, {"smiles": "Cc1cc(=O)oc2cc(OCCCN3CCN(c4ccccc4)CC3)ccc12", "values": [{"measurement": "pKi", "setting": "[1]", "result": 8.26}, {"measurement": "pKi", "setting": "[2]", "result": 7.86}, {"measurement": "pKi", "setting": "[3]", "result": 7.13}]}, {"smiles": "O=c1ccc2ccc(OCCCN3CCN(c4ccccc4)CC3)cc2o1", "values": [{"measurement": "pKi", "setting": "[1]", "result": 8.25}, {"measurement": "pKi", "setting": "[2]", "result": 7.80}, {"measurement": "pKi", "setting": "[3]", "result": 7.30}]}, {"smiles": "Cc1cc2ccc(OCCCN3CCN(c4ccccc4)CC3)cc2oc1=O", "values": [{"measurement": "pKi", "setting": "[2]", "result": 7.97}, {"measurement": "pKi", "setting": "[3]", "result": 7.72}]}]}
